Here are results for seven compounds from PubChem BioAssay AID250 (DTP/NCI, 2004).

For the assay, the system named is BDF1 mice, L1210 leukemia sc, survival T/C. As to the kind of experiment: NCI In Vivo Anticancer Drug Screen. Data for tumor model L1210 Leukemia (subcutaneous) in B6D2F1 (BDF1) mice. The note with it: higher = longer survival. In short, it runs like this: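 Expressed as T/C: measurement in compound-treated, tumor-bearing mice relative to vehicle-treated control mice, based on survival or tumor size.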

Where [1] appears, read: endpoint: median survival time, dose: 3.0 mg/kg/injection, schedule: Q01DX Z (sc), vehicle: methylcellulose (MC).
Setting [2] is: endpoint: median survival time, dose: 5.0 mg/kg/injection, schedule: Q01DX Z (sc), vehicle: methylcellulose (MC).

Each structure is given as a SMILES string. Where “and” joins values, the source holds several entries; their conditions need not be identical. Equal entries are not always repeated. Toxic doses and inconclusive results are not listed.

In the case of `CN(Cc1cnc2nc(N)nc(N)c2n1)c1c(Cl)cc(C(=O)NC(CCC(=O)O)C(=O)O)cc1Br` (stereo not drawn), the T/C runs as follows: (endpoint: median survival time, dose: 1.8 mg/kg/injection, schedule: Q## X Z (sc), vehicle: other) 266 % of control; (endpoint: median survival time, dose: 3.0 mg/kg/injection, schedule: Q## X Z (sc), vehicle: other) 288 % of control; (endpoint: median survival time, dose: 4.9 mg/kg/injection, schedule: Q01DX Z (ip), vehicle: other) 111 % of control; (endpoint: median survival time, dose: 5.0 mg/kg/injection, schedule: Q01DX Z (sc), vehicle: other) 100 % of control; (endpoint: median survival time, dose: 5.0 mg/kg/injection, schedule: Q## X Z (sc), vehicle: other) 422 % of control; (endpoint: median survival time, dose: 8.3 mg/kg/injection, schedule: Q01DX Z (ip), vehicle: other) 122 % of control. Moreover, the T/C runs as follows: (endpoint: median survival time, dose: 8.4 mg/kg/injection, schedule: Q01DX Z (sc), vehicle: other) 111 % of control; (endpoint: median survival time, dose: 8.4 mg/kg/injection, schedule: Q## X Z (sc), vehicle: other) 100 % of control; (endpoint: median survival time, dose: 14.0 mg/kg/injection, schedule: Q01DX Z (sc), vehicle: other) 244 % of control; (endpoint: median survival time, dose: 14.1 mg/kg/injection, schedule: Q01DX Z (ip), vehicle: other) 122 % of control; (endpoint: median survival time, dose: 23.0 mg/kg/injection, schedule: Q01DX Z (sc), vehicle: other) 283 % of control and 300 % of control; (endpoint: median survival time, dose: 23.4 mg/kg/injection, schedule: Q01DX Z (ip), vehicle: other) 283 % of control. The T/C was 305 % of control (endpoint: median survival time, dose: 38.9 mg/kg/injection, schedule: Q01DX Z (ip), vehicle: other); 322 % of control and 338 % of control (endpoint: median survival time, dose: 39.0 mg/kg/injection, schedule: Q01DX Z (sc), vehicle: other); 104 % of control (endpoint: median survival time, dose: 39.0 mg/kg/injection, schedule: Q## X Z (sc), vehicle: other); 300 % of control (endpoint: median survival time, dose: 64.8 mg/kg/injection, schedule: Q01DX Z (ip), vehicle: other); 316 % of control and 333 % of control (endpoint: median survival time, dose: 65.0 mg/kg/injection, schedule: Q01DX Z (sc), vehicle: other); 104 % of control (endpoint: median survival time, dose: 65.0 mg/kg/injection, schedule: Q## X Z (sc), vehicle: other). The T/C is, setting by setting: (endpoint: median survival time, dose: 107.0 mg/kg/injection, schedule: Q01DX Z (ip), vehicle: other) 244 % of control; (endpoint: median survival time, dose: 108.0 mg/kg/injection, schedule: Q01DX Z (sc), vehicle: other) 211 % of control and 233 % of control; (endpoint: median survival time, dose: 108.0 mg/kg/injection, schedule: Q## X Z (sc), vehicle: other) 104 % of control; (endpoint: median survival time, dose: 179.0 mg/kg/injection, schedule: Q01DX Z (ip), vehicle: other) 177 % of control; (endpoint: median survival time, dose: 180.0 mg/kg/injection, schedule: Q01DX Z (sc), vehicle: other) 166 % of control; (endpoint: median survival time, dose: 180.0 mg/kg/injection, schedule: Q## X Z (sc), vehicle: other) 109 % of control. Further, the T/C (endpoint: median survival time, dose: 300.0 mg/kg/injection, schedule: Q## X Z (sc), vehicle: other) was 114 % of control and the T/C (endpoint: median survival time, dose: 500.0 mg/kg/injection, schedule: Q## X Z (sc), vehicle: other) is 114 % of control.

On to `CCN1C=C/C(=C\C=C/c2cc[n+](CC)c3ccccc23)c2ccccc21`, for which the T/C is, setting by setting: (endpoint: median survival time, dose: 0.05 mg/kg/injection, schedule: Q01DX Z (sc), vehicle: methylcellulose (MC)) 100 % of control; (endpoint: median survival time, dose: 0.08 mg/kg/injection, schedule: Q01DX Z (sc), vehicle: methylcellulose (MC)) 100 % of control; (endpoint: median survival time, dose: 0.14 mg/kg/injection, schedule: Q01DX Z (sc), vehicle: methylcellulose (MC)) 100 % of control; (endpoint: median survival time, dose: 0.23 mg/kg/injection, schedule: Q01DX Z (sc), vehicle: methylcellulose (MC)) 100 % of control; (endpoint: median survival time, dose: 0.39 mg/kg/injection, schedule: Q01DX Z (sc), vehicle: methylcellulose (MC)) 100 % of control; (endpoint: median survival time, dose: 0.65 mg/kg/injection, schedule: Q01DX Z (sc), vehicle: methylcellulose (MC)) 100 % of control. In addition, the T/C by setting is: (endpoint: median survival time, dose: 1.08 mg/kg/injection, schedule: Q01DX Z (sc), vehicle: methylcellulose (MC)) 100 % of control; (endpoint: median survival time, dose: 1.8 mg/kg/injection, schedule: Q01DX Z (sc), vehicle: methylcellulose (MC)) 111 % of control; under setting [1], 105 % of control.

On to `Cc1cccc2c(Nc3ccc(NS(C)(=O)=O)cc3)c3ccc([N+](=O)[O-])cc3nc12`, for which the T/C (endpoint: mean survival time, dose: 10.0 mg/kg/injection, schedule: Q01DX009 (ip), vehicle: saline) is 158 % of control.

Take `Cn1cnc([N+](=O)[O-])c1Sc1nc(N)nc2nc[nH]c12`: the T/C is 110 % of control (endpoint: median survival time, dose: 1.3 mg/kg/injection, schedule: Q01DX Z (sc), vehicle: methylcellulose (MC)); 90 % of control and 110 % of control (endpoint: median survival time, dose: 2.16 mg/kg/injection, schedule: Q01DX Z (sc), vehicle: methylcellulose (MC)); 109 % of control under setting [1]; 100 % of control (endpoint: median survival time, dose: 3.6 mg/kg/injection, schedule: Q01DX Z (oral), vehicle: methylcellulose (MC)); 100 % of control (endpoint: median survival time, dose: 3.6 mg/kg/injection, schedule: Q01DX Z (sc), vehicle: methylcellulose (MC)); 118 % of control under setting [2]. In addition, the T/C runs as follows: (endpoint: median survival time, dose: 6.0 mg/kg/injection, schedule: Q01DX Z (oral), vehicle: methylcellulose (MC)) 109 % of control; (endpoint: median survival time, dose: 8.4 mg/kg/injection, schedule: Q01DX Z (oral), vehicle: methylcellulose (MC)) 109 % of control; (endpoint: median survival time, dose: 10.0 mg/kg/injection, schedule: Q01DX Z (oral), vehicle: methylcellulose (MC)) 100 % of control; (endpoint: median survival time, dose: 14.0 mg/kg/injection, schedule: Q01DX Z (oral), vehicle: methylcellulose (MC)) 122 % of control; (endpoint: median survival time, dose: 17.0 mg/kg/injection, schedule: Q01DX Z (oral), vehicle: methylcellulose (MC)) 113 % of control; (endpoint: median survival time, dose: 28.0 mg/kg/injection, schedule: Q01DX Z (oral), vehicle: methylcellulose (MC)) 113 % of control. The T/C is, setting by setting: (endpoint: median survival time, dose: 47.0 mg/kg/injection, schedule: Q01DX Z (oral), vehicle: methylcellulose (MC)) 109 % of control; (endpoint: median survival time, dose: 47.0 mg/kg/injection, schedule: Q01DX Z (sc), vehicle: methylcellulose (MC)) 150 % of control; (endpoint: median survival time, dose: 65.0 mg/kg/injection, schedule: Q01DX Z (oral), vehicle: methylcellulose (MC)) 154 % of control; (endpoint: median survival time, dose: 78.0 mg/kg/injection, schedule: Q01DX Z (oral), vehicle: methylcellulose (MC)) 118 % of control; (endpoint: median survival time, dose: 108.0 mg/kg/injection, schedule: Q01DX Z (oral), vehicle: methylcellulose (MC)) 154 % of control; (endpoint: median survival time, dose: 130.0 mg/kg/injection, schedule: Q01DX Z (oral), vehicle: methylcellulose (MC)) 113 % of control. Besides, where the note is “endpoint: median survival time, dose: 216.0 mg/kg/injection, schedule: Q01DX Z (oral), vehicle: methylcellulose (MC)”, the T/C is 118 % of control.

For `O=c1[nH]c(=S)c2[nH]c(=O)[nH]c2[nH]1`, the T/C was 100 % of control under setting [1] and 100 % of control under setting [2].

In the case of `C[n+]1c2ccccc2nc2c(N)cc(N)cc21`, the T/C runs as follows: (endpoint: median survival time, dose: 1.8 mg/kg/injection, schedule: Q01DX Z (sc), vehicle: saline) 100 % of control; (endpoint: median survival time, dose: 3.0 mg/kg/injection, schedule: Q01DX Z (sc), vehicle: saline) 100 % of control; (endpoint: median survival time, dose: 5.0 mg/kg/injection, schedule: Q01DX Z (sc), vehicle: saline) 100 % of control; (endpoint: median survival time, dose: 8.4 mg/kg/injection, schedule: Q01DX Z (sc), vehicle: saline) 100 % of control; (endpoint: median survival time, dose: 14.0 mg/kg/injection, schedule: Q01DX Z (sc), vehicle: saline) 100 % of control; (endpoint: median survival time, dose: 23.0 mg/kg/injection, schedule: Q01DX Z (sc), vehicle: methylcellulose (MC)) 105 % of control. The T/C reads like this: (endpoint: median survival time, dose: 23.0 mg/kg/injection, schedule: Q01DX Z (sc), vehicle: saline) 111 % of control; (endpoint: median survival time, dose: 39.0 mg/kg/injection, schedule: Q01DX Z (sc), vehicle: methylcellulose (MC)) 105 % of control; (endpoint: median survival time, dose: 39.0 mg/kg/injection, schedule: Q01DX Z (sc), vehicle: saline) 111 % of control; (endpoint: median survival time, dose: 65.0 mg/kg/injection, schedule: Q01DX Z (sc), vehicle: methylcellulose (MC)) 105 % of control.

For the compound `CN(C)Nc1ncnc2nc[nH]c12`, the T/C is 100 % of control (endpoint: median survival time, dose: 8.4 mg/kg/injection, schedule: Q01DX Z (sc), vehicle: water); 100 % of control (endpoint: median survival time, dose: 14.0 mg/kg/injection, schedule: Q01DX Z (sc), vehicle: water); 111 % of control (endpoint: median survival time, dose: 23.0 mg/kg/injection, schedule: Q01DX Z (sc), vehicle: water); 105 % of control (endpoint: median survival time, dose: 39.0 mg/kg/injection, schedule: Q01DX Z (sc), vehicle: water); 111 % of control (endpoint: median survival time, dose: 65.0 mg/kg/injection, schedule: Q01DX Z (sc), vehicle: water); 100 % of control (endpoint: median survival time, dose: 108.0 mg/kg/injection, schedule: Q01DX Z (sc), vehicle: water).
